Earlier results as cited in patent US20110145936A1, “Genetically Modified Rat Models for Pharmacokinetics” (priority 2009, published 2011).
Blank lines part the entries; values can stand above or below the compound they belong to.

How the values were obtained:
Abcg2 = molecular target: T1, Abcg2 (Mus musculus, UniProt Q7TMS5); conditions: Abcg2-/- mice vs WT
T1 construct: host or cells: whole animal: WT mice versus Abcg2-/- mice
T1 sequence (Q7TMS5 1-657): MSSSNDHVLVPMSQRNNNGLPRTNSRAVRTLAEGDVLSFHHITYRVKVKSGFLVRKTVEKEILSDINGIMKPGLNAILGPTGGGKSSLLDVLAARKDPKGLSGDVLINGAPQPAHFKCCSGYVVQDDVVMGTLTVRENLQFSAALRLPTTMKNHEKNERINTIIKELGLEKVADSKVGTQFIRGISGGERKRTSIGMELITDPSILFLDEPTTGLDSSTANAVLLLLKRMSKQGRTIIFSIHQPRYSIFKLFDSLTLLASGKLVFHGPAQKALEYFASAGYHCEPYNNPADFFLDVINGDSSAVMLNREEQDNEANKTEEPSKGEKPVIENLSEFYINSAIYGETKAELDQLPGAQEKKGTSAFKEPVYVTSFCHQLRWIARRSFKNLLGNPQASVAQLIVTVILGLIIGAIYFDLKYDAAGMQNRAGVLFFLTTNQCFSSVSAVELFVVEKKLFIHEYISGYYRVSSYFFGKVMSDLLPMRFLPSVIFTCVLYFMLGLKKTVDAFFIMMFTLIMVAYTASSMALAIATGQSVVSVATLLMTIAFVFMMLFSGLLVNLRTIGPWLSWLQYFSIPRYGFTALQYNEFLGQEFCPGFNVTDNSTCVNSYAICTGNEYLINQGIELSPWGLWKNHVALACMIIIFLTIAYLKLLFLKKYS

Abcc1 = Abcc1 (Mus musculus, UniProt O35379); conditions: for white blood cell, bone marrow nucleated cell and spleen myeloid activity: Abcc1 KO mice after etoposide
Slc7a11 = molecular target: T2, Slc7a11 (Homo sapiens, UniProt Q9UPY5); conditions: WT Slc7a11 cells; more sensitive to the GA analog
T2 sequence (Q9UPY5 1-501): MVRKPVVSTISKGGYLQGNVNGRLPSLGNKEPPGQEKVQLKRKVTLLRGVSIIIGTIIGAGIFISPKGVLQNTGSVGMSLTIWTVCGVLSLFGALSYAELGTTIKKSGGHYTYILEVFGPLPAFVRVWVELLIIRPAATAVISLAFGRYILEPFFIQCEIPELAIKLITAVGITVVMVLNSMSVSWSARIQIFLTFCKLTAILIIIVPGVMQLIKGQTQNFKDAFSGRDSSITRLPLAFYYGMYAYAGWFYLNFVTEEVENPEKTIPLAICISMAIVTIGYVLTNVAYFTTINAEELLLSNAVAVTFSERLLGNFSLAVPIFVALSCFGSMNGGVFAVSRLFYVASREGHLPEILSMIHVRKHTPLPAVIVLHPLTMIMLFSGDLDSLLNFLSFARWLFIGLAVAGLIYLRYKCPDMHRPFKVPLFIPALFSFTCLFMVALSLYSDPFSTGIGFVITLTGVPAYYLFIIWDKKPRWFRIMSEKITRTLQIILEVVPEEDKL
T2 sequence (P08195 1-529 partner): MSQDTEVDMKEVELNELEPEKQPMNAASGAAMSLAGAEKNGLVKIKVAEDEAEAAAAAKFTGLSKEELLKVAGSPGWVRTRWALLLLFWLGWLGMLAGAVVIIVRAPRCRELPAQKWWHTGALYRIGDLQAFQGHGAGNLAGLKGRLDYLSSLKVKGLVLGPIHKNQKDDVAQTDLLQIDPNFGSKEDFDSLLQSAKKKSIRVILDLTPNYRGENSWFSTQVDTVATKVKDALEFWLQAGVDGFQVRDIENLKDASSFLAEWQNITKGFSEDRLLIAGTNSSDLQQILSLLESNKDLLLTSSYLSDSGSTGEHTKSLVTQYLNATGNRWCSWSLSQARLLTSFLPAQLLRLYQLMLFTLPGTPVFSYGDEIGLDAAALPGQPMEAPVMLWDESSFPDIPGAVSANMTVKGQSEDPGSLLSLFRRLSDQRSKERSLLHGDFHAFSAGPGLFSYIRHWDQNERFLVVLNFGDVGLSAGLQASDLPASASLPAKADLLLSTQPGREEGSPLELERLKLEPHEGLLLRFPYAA

Abcg2 & Abcb1 = conditions: gene Abcg2 & Abcb1
Abcb11 = Abcb11 (Mus musculus, UniProt Q9QY30)
Slc22a8 = Slc22a8 (Mus musculus, UniProt Q9WTW5); conditions: gene Slc22a8
Abcb1 = conditions: for direct liver mediated excretion: Abcb1-/- vs WT mice, cannulation of the gall bladder
[1] = tested on: leukemia cell lines which express high levels of Slc29a1; conditions: graded levels of azacytidine in the presence of a tight binding Slc29a1 inhibitor

Sequence of Abcc1 (O35379 whole entry): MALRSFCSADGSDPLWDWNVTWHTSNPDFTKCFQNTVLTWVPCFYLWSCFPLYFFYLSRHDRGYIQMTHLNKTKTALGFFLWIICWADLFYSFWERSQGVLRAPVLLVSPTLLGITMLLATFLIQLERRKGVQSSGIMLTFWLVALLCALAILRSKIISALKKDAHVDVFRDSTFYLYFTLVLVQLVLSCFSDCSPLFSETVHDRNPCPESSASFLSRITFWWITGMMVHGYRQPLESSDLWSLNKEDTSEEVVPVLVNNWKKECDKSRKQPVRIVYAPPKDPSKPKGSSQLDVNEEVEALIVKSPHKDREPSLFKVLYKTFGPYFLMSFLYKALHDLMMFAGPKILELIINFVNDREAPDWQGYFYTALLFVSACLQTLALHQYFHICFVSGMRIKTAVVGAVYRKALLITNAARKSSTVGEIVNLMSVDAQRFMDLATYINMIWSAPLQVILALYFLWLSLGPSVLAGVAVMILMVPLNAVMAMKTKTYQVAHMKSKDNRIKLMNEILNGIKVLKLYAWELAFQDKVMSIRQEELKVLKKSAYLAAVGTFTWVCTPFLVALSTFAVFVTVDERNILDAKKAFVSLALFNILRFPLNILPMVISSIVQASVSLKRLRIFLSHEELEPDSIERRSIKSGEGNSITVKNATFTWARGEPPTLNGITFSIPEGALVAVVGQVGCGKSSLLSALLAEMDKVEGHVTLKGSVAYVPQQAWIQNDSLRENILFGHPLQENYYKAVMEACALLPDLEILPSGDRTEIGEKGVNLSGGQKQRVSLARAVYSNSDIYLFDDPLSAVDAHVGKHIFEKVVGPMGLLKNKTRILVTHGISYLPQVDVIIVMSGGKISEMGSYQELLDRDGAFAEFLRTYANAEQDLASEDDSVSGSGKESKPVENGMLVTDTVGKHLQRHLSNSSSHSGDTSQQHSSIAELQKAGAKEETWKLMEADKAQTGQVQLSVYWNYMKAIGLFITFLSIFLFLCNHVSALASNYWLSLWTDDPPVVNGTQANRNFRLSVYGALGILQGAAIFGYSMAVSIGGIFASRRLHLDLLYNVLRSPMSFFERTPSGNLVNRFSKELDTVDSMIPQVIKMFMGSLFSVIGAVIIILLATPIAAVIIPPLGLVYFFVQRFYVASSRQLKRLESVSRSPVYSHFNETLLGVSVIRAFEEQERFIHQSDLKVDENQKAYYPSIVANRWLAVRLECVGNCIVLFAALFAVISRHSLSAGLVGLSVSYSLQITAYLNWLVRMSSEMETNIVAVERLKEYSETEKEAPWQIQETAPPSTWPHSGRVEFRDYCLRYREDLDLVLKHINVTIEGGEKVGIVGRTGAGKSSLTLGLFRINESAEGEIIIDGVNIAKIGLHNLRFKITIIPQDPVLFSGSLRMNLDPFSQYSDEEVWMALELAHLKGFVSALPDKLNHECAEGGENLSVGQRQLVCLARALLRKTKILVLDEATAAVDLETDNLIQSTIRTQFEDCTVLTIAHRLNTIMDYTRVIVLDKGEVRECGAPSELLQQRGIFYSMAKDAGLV
Sequence of Abcb11 (Q9QY30 whole entry): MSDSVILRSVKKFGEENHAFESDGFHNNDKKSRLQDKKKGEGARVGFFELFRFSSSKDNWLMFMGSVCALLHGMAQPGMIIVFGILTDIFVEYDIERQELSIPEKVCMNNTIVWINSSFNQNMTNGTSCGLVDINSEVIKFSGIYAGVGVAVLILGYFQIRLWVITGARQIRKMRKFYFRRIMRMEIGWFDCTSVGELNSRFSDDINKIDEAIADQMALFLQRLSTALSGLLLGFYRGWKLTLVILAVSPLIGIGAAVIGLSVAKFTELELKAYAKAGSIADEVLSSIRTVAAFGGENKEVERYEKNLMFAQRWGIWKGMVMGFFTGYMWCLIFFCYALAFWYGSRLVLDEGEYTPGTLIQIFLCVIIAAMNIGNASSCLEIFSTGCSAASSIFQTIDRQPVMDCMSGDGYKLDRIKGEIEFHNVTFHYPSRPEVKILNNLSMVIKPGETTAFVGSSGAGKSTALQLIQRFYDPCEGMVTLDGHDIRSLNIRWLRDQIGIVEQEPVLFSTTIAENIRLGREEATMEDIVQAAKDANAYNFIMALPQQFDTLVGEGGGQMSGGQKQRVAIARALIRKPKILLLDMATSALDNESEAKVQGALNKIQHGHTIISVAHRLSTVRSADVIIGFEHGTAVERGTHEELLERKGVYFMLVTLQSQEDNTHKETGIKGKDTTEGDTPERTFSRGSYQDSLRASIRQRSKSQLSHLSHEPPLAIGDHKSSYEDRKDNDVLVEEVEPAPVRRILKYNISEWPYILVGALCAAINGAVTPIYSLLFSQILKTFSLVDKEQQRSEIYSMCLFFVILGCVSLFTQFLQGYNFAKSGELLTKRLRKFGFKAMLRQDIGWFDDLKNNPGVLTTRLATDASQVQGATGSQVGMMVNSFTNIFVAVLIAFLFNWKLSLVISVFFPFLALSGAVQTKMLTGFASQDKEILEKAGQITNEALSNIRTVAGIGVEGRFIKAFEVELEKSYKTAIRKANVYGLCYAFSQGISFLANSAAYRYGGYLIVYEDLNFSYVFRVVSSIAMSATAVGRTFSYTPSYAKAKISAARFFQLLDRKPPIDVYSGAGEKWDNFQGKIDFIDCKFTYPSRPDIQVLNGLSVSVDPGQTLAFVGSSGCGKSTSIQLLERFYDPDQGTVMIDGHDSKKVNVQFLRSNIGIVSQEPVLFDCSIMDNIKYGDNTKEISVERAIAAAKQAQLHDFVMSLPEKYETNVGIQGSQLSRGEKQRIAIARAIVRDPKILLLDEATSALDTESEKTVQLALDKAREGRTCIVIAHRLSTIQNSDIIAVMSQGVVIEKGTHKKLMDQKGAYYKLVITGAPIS
Sequence of Slc22a8 (Q9WTW5 whole entry): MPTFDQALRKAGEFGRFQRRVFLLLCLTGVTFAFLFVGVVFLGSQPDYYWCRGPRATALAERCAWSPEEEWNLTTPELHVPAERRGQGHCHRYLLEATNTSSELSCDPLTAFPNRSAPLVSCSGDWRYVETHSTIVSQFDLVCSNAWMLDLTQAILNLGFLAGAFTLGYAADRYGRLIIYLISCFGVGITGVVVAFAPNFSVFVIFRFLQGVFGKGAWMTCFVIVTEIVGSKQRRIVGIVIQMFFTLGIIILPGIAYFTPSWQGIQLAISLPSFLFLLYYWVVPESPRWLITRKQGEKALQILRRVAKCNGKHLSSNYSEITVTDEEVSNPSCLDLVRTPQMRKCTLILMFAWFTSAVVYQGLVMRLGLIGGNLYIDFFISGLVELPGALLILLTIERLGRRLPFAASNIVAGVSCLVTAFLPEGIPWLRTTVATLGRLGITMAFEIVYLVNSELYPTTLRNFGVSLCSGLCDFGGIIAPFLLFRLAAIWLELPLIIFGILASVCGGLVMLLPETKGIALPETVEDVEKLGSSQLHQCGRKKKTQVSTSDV

SMILES: Cn1c(N)nc2ncc(-c3ccccc3)cc21 [PhIP]
concentration (Abcg2): higher concentration
intestinal excretion (Abcg2): highly impaired

SMILES: COc1cc([C@@H]2c3cc4c(cc3[C@@H](O[C@@H]3O[C@@H]5CO[C@@H](C)O[C@H]5[C@H](O)[C@H]3O)[C@H]3COC(=O)[C@H]23)OCO4)cc(OC)c1O [Etoposide]
white blood cell, bone marrow nucleated cell and spleen myeloid activity (Abcc1): depleted in Abcc1 mice.
Drug resistance/sensitivity (Abcc1; gene Abcc1): Etoposide (S)

sensitivity relative to GA (Slc7a11): 7.2 fold
SMILES: C=CCNC1=C2C[C@@H](C)C[C@H](OC)[C@H](O)[C@@H](C)/C=C(\C)[C@H](OC(N)=O)[C@@H](OC)/C=C\C=C(/C)C(=O)NC(=CC1=O)C2=O [17AAG, 17-(allyl-amino)-17 denethoxygelandomycin]

SMILES: C(=N\NC1=NCCN1)/c1c2ccccc2c(/C=N/NC2=NCCN2)c2ccccc12 [Bisantrene]
Drug resistance/sensitivity (Abcg2 & Abcb1): Taxol analog (S),

SMILES: C[C@H](CCC(=O)NCCS(=O)(=O)O)[C@H]1CC[C@H]2[C@@H]3[C@H](O)C[C@@H]4C[C@H](O)CC[C@]4(C)[C@H]3C[C@H](O)[C@]12C [Taurocholate]
bile acid output increase (Abcb11; WT mice after Taurocholate injection): output; WT mice show a 20-fold
taurocholate output increase (Abcb11; WT mice after tail vein injection): 20 fold

Drug resistance/sensitivity (Slc22a8): Histamine (S),
SMILES: NCCc1c[nH]cn1 [Histamine]

direct liver mediated excretion (Abcb1): moderate decrease
SMILES: C[C@H]1O[C@@H](O[C@H]2[C@@H](O)C[C@H](O[C@H]3[C@@H](O)C[C@H](O[C@H]4CC[C@@]5(C)[C@H](CC[C@@H]6[C@@H]5C[C@@H](O)[C@]5(C)[C@@H](C7=CC(=O)OC7)CC[C@]65O)C4)O[C@@H]3C)O[C@@H]2C)C[C@H](O)[C@@H]1O [digoxin]

SMILES: Nc1ncn([C@@H]2O[C@H](CO)[C@@H](O)[C@H]2O)c(=O)n1 [azacytidine]
loss in cytotoxicity [1]: > 10 fold

SMILES: COc1cc([C@@H]2c3cc4c(cc3[C@@H](O[C@@H]3O[C@@H]5CO[C@@H](C)O[C@H]5[C@H](O)[C@H]3O)[C@H]3COC(=O)[C@H]23)OCO4)cc(OC)c1OP(=O)(O)O [Etoposide phosphate]
toxicity in transporter deficient mice compared to WT (Abcc1; Abcc1-/- vs WT mice, single dose): twice as toxic
white blood cell, bone marrow nucleated cell and spleen myeloid activity (Abcc1): severe depletion

direct liver mediated excretion (Abcb1): moderate decrease
organ penetration (Abcb1; brain, ovaries, adrenal gland and intestine of Abcb1-/- mice): increased penetration
SMILES: CC(=O)O[C@H]1C(=O)[C@@]2(C)[C@H]([C@H](OC(=O)c3ccccc3)[C@]3(O)C[C@H](OC(=O)[C@H](O)[C@@H](NC(=O)c4ccccc4)c4ccccc4)C(C)=C1C3(C)C)[C@]1(OC(C)=O)CO[C@@H]1C[C@@H]2O [paclitaxel]
